Measurements: patent US9724335B2, “Solid dispersions of insoluble drug and preparation method thereof” (SK BIOPHARMACEUTICALS CO., LTD., priority 2012, dated 2017)
Values after ≈ are worked out from the molar mass of the structure shown.

Experiments:
[1] = Pharmacokinetic test of the solid dispersion for a Beagle dog (oral, plasma CBI by LC-MS/MS); format: in vivo; details: oral 40 mg/kg in gelatin capsule, all the time zones (0-24 h), listed as CBI powder
Experimental: Just before the test, three Beagle dogs were weighed respectively. The solid dispersion of Example 3 as the test group and CBI powder as the control group each weighed in the amount corresponding to 40 mg/kg, were filled into a gelatin capsule and then orally administered. Just before and at 0.5, 1, 2, 4, 6, 8 and 24 h after administration, the blood was collected from the popliteal vein. The plasma was separated from the blood sample by centrifugation and stored/kept at −20° C. until analysis thereof. For the analysis, the plasma sample (0.5 ml) was correctly transferred to a 1.5 ml polypropylene centrifuge tube. This mixture was vortexed for 30 sec and centrifuged at 400 rpm for 10 min. The concentration of CBI in the plasma was analyzed by LC-MS/MS. […] The peak was detected by MRM (multiple reaction monitoring) method using triple-quadrupole mass spectrometry. The ionization was analyzed in the positive mode by using electrospray ionization (ESI) wherein the ion spray temperature was set up at 500° C. In the MRM method, the protonated molecular ions of CBI and the internal standard compound were monitored to have the m/z values of 325.1 and 268.0, and the product ions thus produced were monitored to have the m/z values of 91.0 and 155.0, respectively. The area under the concentration-time curve (AUC) of the drug in the plasma was calculated by the linear trapezoidal method.

[2] = Solubility of CBI in several solvents (24 h stirring at room temperature, HPLC); format: physicochemical; details: for solubility at 24 h: organic solvent or mixture, thermodynamic from solid
Experimental: Under several solvent conditions—i.e., distilled water, methanol, ethanol, acetone and diethyl ether—the solubility of CBI was measured. Specifically, about 5 to 40 mg of CBI was introduced into a 1.5 mL microtube, and 1 mL of the test solvent was added thereto. The mixture was slowly stirred in a rotary stirrer for 24 h under the condition of room temperature until solvent equilibrium was reached. After stirring, the suspended solution was filtered through a 0.45 micrometer membrane filter. The supernatant was collected and diluted by two-fold with the same amount of diluent for analysis. The CBI concentration was analyzed by using high-performance liquid chromatography. The column used in the present experiment was a […], 5 μm C18 column, and the mobile phase was a mixture of 35% acetonitrile, 20% methanol and 45% distilled water by volume. The flow rate was 1.0 mL/min, and the detection was performed at 255 nm. The results are shown in Table 11 wherein the values are represented as an average of three repeats ±standard deviation.

SMILES: NC(=O)OCc1cc(-c2ccc(OCc3ccccc3)cc2)no1 [CBI, carbamic acid 3-(4-benzyloxy-phenyl)-isoxazol-5-ylmethyl ester]
- Blood CBI Concentration [1]: below the sensitivity for quantification
- Solubility ([2]; Distilled Water): Not detected
- solubility at 24 h ([2]; Acetone): 24800 µg/mL (≈ 76.5 mM)
- solubility at 24 h ([2]; Diethyl Ether): 700 µg/mL (≈ 2.16 mM)
- solubility at 24 h ([2]; Ethanol): 1500 µg/mL (≈ 4.62 mM)
- solubility at 24 h ([2]; Methanol): 2500 µg/mL (≈ 7.71 mM)
